{
  "source": "ChEMBL document CHEMBL1125127",
  "about": "(J Med Chem, 1990)",
  "data": [
    {"system": "not listed separately", "assay": "Ratio of number of active animals to number of treated animals; No of animals tested=2", "assay_type": "functional", "values": [
      {"smiles": "COc1ccc(OCC(O)CNCCNC(=O)c2ccc(NS(C)(=O)=O)cc2)cc1", "note": "(stereo not given)", "Ratio": 0},
      {"smiles": "CS(=O)(=O)Nc1ccc(C(=O)NCCNCC(O)COc2cccc3ccccc23)cc1", "note": "(stereo not given)", "Ratio": 0},
      {"smiles": "CS(=O)(=O)Nc1ccc(C(=O)NCCNCC(O)COc2ccccc2)cc1", "note": "(stereo not given)", "Ratio": 0}
    ]},
    {"target": "Beta-1 adrenergic receptor (Canis familiaris)", "units": {"IC50": "µM"}, "values": [
      {"smiles": "CS(=O)(=O)Nc1ccc(OCC(O)CNCc2ccc(-n3ccnc3)cc2)cc1", "note": "(stereo not given)", "IC50": 33.1},
      {"smiles": "Cc1ccccc1OCC(O)CNCc1ccc(-n2ccnc2)cc1", "note": "(stereo not given)", "IC50": 0.8},
      {"smiles": "Cc1cccc(OCC(O)CNCc2ccc(NS(C)(=O)=O)cc2)c1", "note": "(stereo not given)", "IC50": 2.4},
      {"smiles": "COCCc1ccc(OCC(O)CNCc2ccc(NS(C)(=O)=O)cc2)cc1", "note": "(stereo not given)", "IC50": 7.3}
    ]},
    {"target": "Beta-2 adrenergic receptor (Canis lupus familiaris, UniProt P54833)", "sequence (P54833 whole entry)": "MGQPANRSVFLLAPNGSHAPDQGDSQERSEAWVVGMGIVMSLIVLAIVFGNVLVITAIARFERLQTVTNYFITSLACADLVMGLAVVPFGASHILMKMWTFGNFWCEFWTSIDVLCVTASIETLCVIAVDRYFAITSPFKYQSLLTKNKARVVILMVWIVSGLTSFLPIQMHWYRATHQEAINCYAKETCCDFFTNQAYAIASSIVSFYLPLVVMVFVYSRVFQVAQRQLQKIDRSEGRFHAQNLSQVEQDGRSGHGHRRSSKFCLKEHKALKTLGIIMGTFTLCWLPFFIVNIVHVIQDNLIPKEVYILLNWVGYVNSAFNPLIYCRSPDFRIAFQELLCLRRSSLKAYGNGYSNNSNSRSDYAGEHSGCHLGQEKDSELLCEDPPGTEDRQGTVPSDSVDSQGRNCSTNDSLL", "units": {"IC50": "µM"}, "description": "Tested for Beta-2 adrenergic receptor selectivity in canine lung tissue in anesthetized dogs", "values": [
      {"smiles": "Cc1ccccc1OCC(O)CNCc1ccc(-n2ccnc2)cc1", "note": "(stereo not given)", "IC50": 1.2},
      {"smiles": "Cc1cccc(OCC(O)CNCc2ccc(NS(C)(=O)=O)cc2)c1", "note": "(stereo not given)", "IC50": 4.4},
      {"smiles": "COCCc1ccc(OCC(O)CNCc2ccc(NS(C)(=O)=O)cc2)cc1", "note": "(stereo not given)", "IC50": 46}
    ]},
    {"system": "Canis familiaris", "assay": "Concentration that causes a 20% increase in APD95 (action potential duration at 95% repolarization) from control value in anesthetized dogs", "assay_type": "functional, Canis lupus familiaris", "units": {"C20": "µM"}, "values": [
      {"smiles": "CS(=O)(=O)Nc1ccc(OCC(O)CNCc2ccc(-n3ccnc3)cc2)cc1", "note": "(stereo not given)", "C20": 1.8},
      {"smiles": "COc1ccc(OCC(O)CNCCNC(=O)c2ccc(NS(C)(=O)=O)cc2)cc1", "note": "(stereo not given)", "C20": 0.6},
      {"smiles": "Cc1ccccc1OCC(O)CNCc1ccc(-n2ccnc2)cc1", "note": "(stereo not given)", "C20": 0.3},
      {"smiles": "Cc1cccc(OCC(O)CNCc2ccc(NS(C)(=O)=O)cc2)c1", "note": "(stereo not given)", "C20": "<1"},
      {"smiles": "CS(=O)(=O)Nc1ccc(C(=O)NCCNCC(O)COc2cccc3ccccc23)cc1", "note": "(stereo not given)", "C20": 1.1},
      {"smiles": "CS(=O)(=O)Nc1ccc(C(=O)NCCNCC(O)COc2ccccc2)cc1", "note": "(stereo not given)", "C20": 7.1},
      {"smiles": "COCCc1ccc(OCC(O)CNCc2ccc(NS(C)(=O)=O)cc2)cc1", "note": "(stereo not given)", "C20": 0.5}
    ]},
    {"target": "Beta adrenergic receptor (Canis familiaris)", "units": {"IC50": "µM"}, "values": [
      {"smiles": "COc1ccc(OCC(O)CNCCNC(=O)c2ccc(NS(C)(=O)=O)cc2)cc1", "note": "(stereo not given)", "IC50": 43.8},
      {"smiles": "Cc1ccccc1OCC(O)CNCc1ccc(-n2ccnc2)cc1", "note": "(stereo not given)", "IC50": 0.78},
      {"smiles": "Cc1cccc(OCC(O)CNCc2ccc(NS(C)(=O)=O)cc2)c1", "note": "(stereo not given)", "IC50": 0.99},
      {"smiles": "CS(=O)(=O)Nc1ccc(C(=O)NCCNCC(O)COc2cccc3ccccc23)cc1", "note": "(stereo not given)", "IC50": 0.15},
      {"smiles": "CS(=O)(=O)Nc1ccc(C(=O)NCCNCC(O)COc2ccccc2)cc1", "note": "(stereo not given)", "IC50": 3.9},
      {"smiles": "COCCc1ccc(OCC(O)CNCc2ccc(NS(C)(=O)=O)cc2)cc1", "note": "(stereo not given)", "IC50": 25.8}
    ]},
    {"system": "Canis familiaris", "assay": "Maximum change in […] from control value in anesthetized dogs; 10 uM.", "assay_type": "functional, Canis lupus familiaris", "units": {"Max delta": "%"}, "values": [
      {"smiles": "COc1ccc(OCC(O)CNCCNC(=O)c2ccc(NS(C)(=O)=O)cc2)cc1", "note": "(stereo not given)", "Max delta": 86},
      {"smiles": "Cc1ccccc1OCC(O)CNCc1ccc(-n2ccnc2)cc1", "note": "(stereo not given)", "Max delta": 65},
      {"smiles": "Cc1cccc(OCC(O)CNCc2ccc(NS(C)(=O)=O)cc2)c1", "note": "(stereo not given)", "Max delta": 44},
      {"smiles": "CS(=O)(=O)Nc1ccc(C(=O)NCCNCC(O)COc2cccc3ccccc23)cc1", "note": "(stereo not given)", "Max delta": 48},
      {"smiles": "COCCc1ccc(OCC(O)CNCc2ccc(NS(C)(=O)=O)cc2)cc1", "note": "(stereo not given)", "Max delta": 57}
    ]},
    {"system": "Canis familiaris", "assay": "Concentration at which maximum change in […] was observed from control value in anesthetized dogs; The maximum observed change APD95 from control value and concentration at 30 uM when this occurred", "assay_type": "functional, Canis lupus familiaris", "units": {"Max delta": "%"}, "values": [
      {"smiles": "CS(=O)(=O)Nc1ccc(OCC(O)CNCc2ccc(-n3ccnc3)cc2)cc1", "note": "(stereo not given)", "Max delta": 67},
      {"smiles": "CS(=O)(=O)Nc1ccc(C(=O)NCCNCC(O)COc2ccccc2)cc1", "note": "(stereo not given)", "Max delta": 26}
    ]}
  ]
}
